Earlier results as cited in patent US6475518B1, “Methods and compositions for treatment of disorders associated with chlamydia and similar bacterial infection” (priority 1998, dated 2002).

Key:
[1] = tested on: C. pneumoniae; conditions: Gupta S, et al., Circulation 1997
[2] = tested on: C. pneumoniae; conditions: Gurfinkel E, et al., Lancet 1997; limited numbers, no prolonged follow-up yet

SMILES | Clinical benefit of monotherapy [1] | Clinical benefit of sole therapy [2]
CC[C@H]1OC(=O)[C@H](C)[C@@H](O[C@H]2C[C@@](C)(OC)[C@@H](O)[C@H](C)O2)[C@H](C)[C@@H](O[C@@H]2O[C@H](C)C[C@H](N(C)C)[C@H]2O)[C@](C)(O)C[C@@H](C)CN(C)[C@H](C)[C@@H](O)[C@]1(C)O [azithromycin] | the benefit was not sustained after initial therapy | –
CC[C@H]1OC(=O)[C@H](C)[C@@H](O[C@H]2C[C@@](C)(OC)[C@@H](O)[C@H](C)O2)[C@H](C)[C@@H](O[C@@H]2O[C@H](C)C[C@H](N(C)C)[C@H]2O)[C@](C)(O)C[C@@H](C)/C(=N\OCOCCOC)[C@H](C)[C@@H](O)[C@]1(C)O [roxithromycin] | – | a benefit was described
